Measurements: US11419914B2 (Serenity Pharmaceuticals LLC, priority 2009, dated 2022)
Like-named read-outs stand apart in the source and are kept apart here.

Assays:
clinical = details: human, in vivo, inhaled or intranasal
Description: (§1) The open-label preliminary study of the effects and pharmacokinetics of the prototype dispensers was conducted with six male and six female healthy, water loaded, non-smoking volunteer subjects, following the protocol described generally below. In summary, each subject was dosed up to four times over a period of one week with dosing administered every other day. […] All subjects were screened prior to the first treatment, including evaluations of medical history, complete physical exam including nasopharyngeal exam, serum chemistry including serum osmolality, urinalysis including urine osmolality.
On day one all subjects were asked to have his/her morning void prior to breakfast, and thereafter subjects started the water loading process. […] Insensible loss was not measured or replaced. […]
Blood sampling for pharmacokinetic determinations was performed at 1, 1.5, 2, 3, 4 and 6 hours post dose. […] A plasma concentration value below the limit of quantitation (“LOQ”) followed by values above the limit was set at ‘LOQ/2’ for the analysis and for the descriptive statistics on concentrations. […]
Assay values below the level of detection that occurred between two non-zero concentrations were considered to be “missing” for purposes of calculating the AUC. […] Accordingly, an average terminal half-life (Avg T1/2) was calculated for each subject that included a treatment with evaluable half-lives in that subject. […]

[1] = system: human adult subjects in a water loaded state; assay: Antidiuretic effect (urine output, urine osmolarity, duration) in water loaded subjects; type: in vivo
Description: as §1
On day one all subjects were asked to have his/her morning void prior to breakfast, and thereafter subjects started the water loading process. […] To achieve a steady state diuresis, the subjects were directed to drink a volume of water corresponding to at least 1.5% and up to 3% of body weight. The water loading process started about two hours prior to the dosing of the first subject. Subjects were asked to void every 20 minutes. To ensure continuous water loaded state, the subjects replaced their urinary output loss with an equivalent amount of fluid. Insensible loss was not measured or replaced. When the urinary output rate exceeded 10 ml/min in two consecutive measurements (defined as water loaded state) in the subjects, dosing began. Subjects were maintained in the water loaded state with equivalent fluid intake versus fluid loss.
Other than the dose level, all procedures were the same as those described for day one.

[2] = system: adult patients with nocturia; type: in vivo, human; details: 500 and 1000 ng (one or two sprays intranasally)
Description: A second separate study in adult patients with nocturia established that doses of 500 and 1000 ng (one or two sprays administered intranasally) produced dramatic therapeutic decreases in the number of night time urinary voids equal to or less than one per night in 41 of 43 patients.

[3] = in vivo, cited from earlier work

## NC(=O)CC[C@@H]1NC(=O)[C@H](Cc2ccccc2)NC(=O)[C@H](Cc2ccc(O)cc2)NC(=O)CCSSC[C@@H](C(=O)N2CCC[C@H]2C(=O)N[C@H](CCCN=C(N)N)C(=O)NCC(N)=O)NC(=O)[C@H](CC(N)=O)NC1=O [desmopressin, 1-desamino-8-D-arginine vasopressin]
clinical; both sexes, T1/2
  half-life: 1.13 ± 0.3 h
clinical; both
  T1/2: 1.33 ± 0.56 h
[1]; after 2 μg nasally
  time urine osmolarity remained greater than about 400 mOsmol/Kg: about 250 minutes
[1]; after 2000 ng nasally
  period urine output remained less than 8 ml/minute: up to 400 minutes
[1]; within 20 minutes after 2000 ng nasally, water loaded men and women
  mean urine output: less than 8 ml/minute
[1]; within 40 minutes after 2 μg nasally
  mean urine osmolarity: greater than 400 mOsmol/kg
[2]
  patients with night time urinary voids equal to or less than one per night: 41 of 43
[3]; human, inhaled or intranasal
  bioavailability: 3-5%
[3]; human
  half life: ≥ 1.5 h
[3]; po
  bioavailability: far less than one percent
